The record followed here is US9963518B2, “Cyclic oligosaccharides for use in the treatment and prevention of bacterial infection” (priority 2011, dated 2018).

In general, Kd refers to the concentration at which binding is half-saturated.

For test [1], the target named is WT Wza (Escherichia coli, UniProt Q9X4B7). In words: Single-channel electrical recording, blockers against wt-Wza in planar lipid bilayers. It is filed as binding, E. coli. The note with it: for Interaction with WT Wza: 2M KCl, 5 mM HEPES, 100 μM EDTA, 200 μM DTT, pH 7.5. As for the experimental part: The Wt Wza transporter was tested in single-channel recording, in accordance with the procedures of Naismith (Nature 2006, 444, 226-229) for its ability to form pores in planar lipid bilayers. Sequential insertions of channels in a single orientation were used to measure the conductance of a single channel because more than one channel could insert simultaneously during the first introduction, especially when protein molecules have not properly diffused yet. Repetition of experiments helped to verify conductance of a single channel. […] After collection of 37 insertions of wt Wza channel, the current of a single channel of wt Wza in 2 M KCl buffer was determined to be 1.89±0.01 pA (n=37) on average, corresponding to 18.9±0.1 pS (n=37) in conductance.
(§1) Thirteen commercial cyclodextrins (CDs) were tested for their ability to block WT-Wza and the mutant Y110G/K375C (Table 1) including, neutral, negatively charged or positively charged cyclodextrins. Testing was carried out using electrical channel recording in high salt buffer (2M KCl, 5 mM HEPES, 100 μM EDTA, 200 μM DTT) at pH 7.5.

Test [2] deals with E. coli strain E69. Nature of the test: LPS exposure assay, O9a LPS to O9a LPS-specific antibodies (FACS). Type of test: cell-based. The conditions noted are these: 1 mM, antiserum incubation 1 h; for LPS exposure by median fluorescence intensity: relative to CWG281 positive control. The protocol:
The direct effect of the inhibition of K30 CPS transport on E. coli strain E69 is the appearance of defects in the capsule layer. This should in turn lead to exposure of O9a LPS at the cell surface. To test this hypothesis, the attachment of rabbit anti-O9a antibodies was quantified by flow cytometry (FACS), by using secondary fluorescent anti-rabbit antibodies. The design of the experiment is depicted schematically in FIG. 4a.
E. coli strains E69 and CWG281 were grown as described above in Example 4 and the OD600 was adjusted to 0.4. The concentrations of cyclodextrin (either am8γCD (compound 13), am6αCD (compound 3) or am7βCD (compound 10)) present in the growth media were 10 nM, 100 nM, 1 μM, 10 μM, 50 μM, 100 μM and 1 mM. 50 μL samples of each were centrifuged at 3,000×g for 10 min to remove the medium, washed with PBS and resuspended in 50 μL PBS. O9a antiserum (0.5 μL) was then added. The mixtures were incubated on ice for 1 h (to compare the effects of am6αCD, am7βCD and am8γCD on the exposure of LPS) or 2 h (for the estimation of minimum effective concentration of am8γCD required to expose LPS to antibodies), followed by centrifugation at 3,000×g for 10 min and washing with PBS. The pellets were resuspended in PBS (50 μL), to which Alexa Fluor 488 Goat Anti-Rabbit IgG secondary antibody (1 μL, Life Technologies, A11034, λex 495 nm, λem 519 nm) was added, followed by incubation for 1 h on ice. The cells were then centrifuged at 3,000×g for 10 min. The pellets were resuspended in PBS (1 mL), followed by analysis by flow cytometry (FACS) using a Becton-Dickinson FACSCalibur. 10,000 cells were analysed for each sample. Fluorescence was measured in the FL1 channel (530 nm).

In test [3] the target is Wza Y110G/K375C (Escherichia coli, UniProt Q9X4B7, K375C/Y110G). Nature of the test: Single-channel electrical recording, blockers against mutant Wza Y110G/K375C. The note with it: Y110G/K375C; for Kd: n = 3, 2M KCl buffer pH 7.5. It is filed as binding, E. coli. As for the experimental part:
The Wza pore was opened by replacing the tyrosines at position 110 that line the narrowest region of the lumen with glycine. To confirm that the currents observed indeed arose from the mutant pore, a cysteine was introduced in the α-helix barrel (Y110G/K375C) and would therefore yield a characteristic reversible blockade when derivatized with a suitable thiol-specific reagent.
The unitary conductance of the Y110G/K375C pore was determined as for wt-Wza, by measuring stepwise-insertion using the same technique referenced above. The mean open current of Y110G/K375C was determined to be +85±14.1 pA (+50 mV, n=31), corresponding to 1.70±0.28 nS (+50 mV, n=31) in conductance.
as §1

Read-outs that look alike come from different tables or passages of the source.

With `NCC1OC2OC3C(CN)OC(OC4C(CN)OC(OC5C(CN)OC(OC6C(CN)OC(OC7C(CN)OC(OC1C(O)C2O)C(O)C7O)C(O)C6O)C(O)C5O)C(O)C4O)C(O)C3O` (stereo not drawn) [No. 3, hexakis (6-amino-6-deoxy)-α-cyclodextrin], in test [1], the “Interaction with WT Wza” value is on record as “not observed”. Further, in test [2], the “LPS exposure by percentage of labelled cells” value turned out to be 36% and the “LPS exposure by median fluorescence intensity” value amounted to 3.2%.

On to `NC[C@H]1O[C@@H]2O[C@H]3[C@H](O)[C@@H](O)[C@@H](O[C@H]4[C@H](O)[C@@H](O)[C@@H](O[C@H]5[C@H](O)[C@@H](O)[C@@H](O[C@H]6[C@H](O)[C@@H](O)[C@@H](O[C@H]7[C@H](O)[C@@H](O)[C@@H](O[C@H]8[C@H](O)[C@@H](O)[C@@H](O[C@H]1[C@H](O)[C@H]2O)O[C@@H]8CN)O[C@@H]7CN)O[C@@H]6CN)O[C@@H]5CN)O[C@@H]4CN)O[C@@H]3CN` [No. 4, heptakis (6-amino-6-deoxy)-β-cyclodextrin], for which the “Interaction with WT Wza” value in test [1] was “not observed”. The “Interaction with mutant Wza” value in test [3] (2M KCl, 5 mM HEPES, 100 μM EDTA, 200 μM DTT, pH 7.5) is reported as “not observed^b”. In addition, the dissociation constant Kd in test [3] (+3 mV, read-out: Kd, interaction with mutant Wza) stood at 2900 ± 1800 µM. Also, in test [2], the “LPS exposure by percentage of labelled cells” value was determined as 9% and the “LPS exposure by median fluorescence intensity” value was 1.8%.

For the molecule `NC[C@H]1O[C@@H]2O[C@H]3[C@H](O)[C@@H](O)[C@@H](O[C@H]4[C@H](O)[C@@H](O)[C@@H](O[C@H]5[C@H](O)[C@@H](O)[C@@H](O[C@H]6[C@H](O)[C@@H](O)[C@@H](O[C@H]7[C@H](O)[C@@H](O)[C@@H](O[C@H]8[C@H](O)[C@@H](O)[C@@H](O[C@H]1[C@H](O)[C@H]2O)O[C@@H]8CN)O[C@@H]7CN)O[C@@H]6CN)O[C@@H]5CN)O[C@@H]4CN)O[C@@H]3CN` [compound 4], the Kd in test [1] came to 13000 µM; in test [3] (Kd, interaction with mutant Wza, +3 mV) it was 2900 µM; in test [3] (Kd, interaction with mutant Wza, +75 mV), 2100 µM.
